From PubChem BioAssay (NCI)
“And” between values parts separate entries of the source, which are not always exact repeats. Identical values can stand only once.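 The compound was tested at five concentrations on cells cultured in 96-well plates, with a 48-hour exposure period. The concentration for 50% growth inhibition is given as GI50. At the TGI there is no net growth.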

Assays:
Experiment in all cases: NCI tumour cell line growth inhibition, 48 h
KM12 colon = tested on: KM12 colon
SK-MEL-28 melanoma = tested on: SK-MEL-28 melanoma
SW-620 colon = tested on: SW-620 colon
SF-268 CNS = tested on: SF-268 CNS
IGROV1 ovarian = tested on: IGROV1 ovarian
SK-MEL-2 melanoma = tested on: SK-MEL-2 melanoma
HT29 colon = tested on: HT29 colon
MOLT-4 leukemia = tested on: MOLT-4 leukemia
T-47D breast = tested on: T-47D breast
SNB-19 CNS = tested on: SNB-19 CNS

SMILES | GI50 (KM12 colon) | TGI (KM12 colon) | GI50 (SK-MEL-28 melanoma) | TGI (SK-MEL-28 melanoma) | GI50 (SW-620 colon) | TGI (SW-620 colon) | GI50 (SF-268 CNS) | TGI (SF-268 CNS) | GI50 (IGROV1 ovarian) [µM] | TGI (IGROV1 ovarian) | GI50 (SK-MEL-2 melanoma) | TGI (SK-MEL-2 melanoma) | GI50 (HT29 colon) | TGI (HT29 colon) | GI50 (MOLT-4 leukemia) | TGI (MOLT-4 leukemia) | GI50 (T-47D breast) [µM] | TGI (T-47D breast) [µM] | GI50 (SNB-19 CNS) | TGI (SNB-19 CNS) [µM]
CCOc1ccc(-c2nonc2NC(=O)c2cccc(C)c2)cc1OCC | > 100 µM | > 100 µM | > 100 µM | > 100 µM | > 100 µM | > 100 µM | 90.5 µM | > 100 µM | 67 | > 100 µM | > 100 µM | > 100 µM | > 100 µM | > 100 µM | > 100 µM | > 100 µM | > 100 | > 100 | 34.9 µM | > 100
C=C1C(=O)O[C@H]2[C@H]1CC/C(Cn1cc(-c3cc(C(F)(F)F)cc(C(F)(F)F)c3)nn1)=C\CC[C@@]1(C)O[C@@H]21 | 1.04 µM | 2.53 µM | 0.465 µM | 1.65 µM | 0.19 µM | 0.399 µM | 1.08 µM | 2.49 µM | 0.841 | 2.34 µM | 0.348 µM | 1.49 µM | 0.19 µM | 0.486 µM | 0.191 µM | 0.603 µM | 0.33 | 1.62 | 1.71 µM | 3.58
CC(=O)[C@@]1(O)CC[C@H]2[C@@H]3C[C@H](C)C4=CC(=O)CC[C@]4(C)[C@H]3[C@@H](O)C[C@@]21C | – | > 100 µM | – | > 100 µM | – | > 100 µM | – | > 100 µM | – | > 100 µM | – | > 100 µM | – | > 100 µM | – | > 100 µM | – | > 100 | – | > 100
COc1ncc(-c2ccc3nccc(-c4ccnnc4)c3c2)cc1NS(=O)(=O)c1ccc(F)cc1F | 0.033 µM and 0.0302 µM | 1.53 µM and 1.58 µM | 0.00213 µM and < 0.01 µM | 0.0395 µM and 0.36 µM | 0.0151 µM and 0.0225 µM | > 4.47 µM and 1.92 µM | 0.0127 µM and 0.0148 µM | > 10 µM and 9.23 µM | < 0.01 | 0.00752 µM and < 0.01 µM | 0.0194 µM and < 0.01 µM | 0.227 µM and 0.15 µM | 0.00325 µM and < 0.01 µM | > 10 µM and 4.25 µM | 0.00505 µM and < 0.01 µM | 0.801 µM and 0.579 µM | – | 0.00428 | 0.0397 µM and 0.0127 µM | –
COC(=O)c1c2c(c(C)[n+]([O-])c1C)C(=O)C=C(NCc1ccc(F)c(Cl)c1)C2=O | 0.0515 µM | 1.58 µM | 0.411 µM | 2.15 µM | 0.112 µM | 1.32 µM | 1.01 µM | 2.81 µM | 0.421 | 1.91 µM | 0.677 µM | 2.5 µM | 0.243 µM | 2.15 µM | 0.404 µM | 2.19 µM | 0.0638 | 1.35 | 0.801 µM | 2.07
COc1cc2c3c(n(CCCN)c(=O)c2cc1OC)-c1cc2c(cc1/C3=C\CCN)OCO2 | 2.6 µM | > 21.8 µM | 2.15 µM | 9.67 µM | 3.56 µM | > 66.2 µM | 0.993 µM | 6.89 µM | 3.74 | > 26.8 µM | 6.57 µM | 14.6 µM | 0.373 µM | 10.6 µM | 0.0601 µM | – | 19.4 | > 100 | 3.46 µM | > 30.9
COc1cc(-c2nn(-c3cccc(NC(=O)Nc4cc(C(F)(F)F)cc(C(F)(F)F)c4)c3)cc2-c2ccncc2)ccc1Cl | 0.412 µM | 2.09 µM | 0.758 µM | 1.94 µM | 0.494 µM | 2.94 µM | 0.896 µM | 2.3 µM | 0.592 | 2.34 µM | 1.01 µM | 2.04 µM | 0.619 µM | 1.68 µM | 1.08 µM | 4.48 µM | 1.03 | 26.7 | 0.59 µM | 4.25
